Source: patent US8309558B2, “Compounds for the treatment of hepatitis C” (Bristol-Myers Squibb Company, priority 2008, dated 2012)
pEC50, pIC50: −log10 of the molar value. Read-outs that look alike come from different tables or passages of the source.

How the values were obtained:
[1] = target: T1, HCV NS5B RdRp genotype 1b (Hepatitis C virus genotype 1b, UniProt Q9WMX2); assay: Standard HCV NS5B RdRp enzyme assay; format: biochemical
T1 construct: The protein was expressed with an 18 amino acid C-terminal truncation to enhance the solubility; made in house; host or cells: E. coli BL21(DE3), pET21a vector
Summary of the method: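 C-terminally truncated (18 aa) genotype 1b NS5B from E. coli, 28 nM, with 6 nM polyA template, 180 nM biotinylated oligo-dT12 primer and 3H-UTP (0.29 μM total UTP). Hepes pH 7.5 buffer with 2% DMSO; 60 min at 30° C. EDTA stop, SPA read-out; IC50 from seven concentrations by four-parameter fit.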

HCV replicon cells = assay: HCV replicon FRET / luciferase assay (96-well plates); format: cell-based; details: Hepatitis C virus
Summary of the method: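 Replicon cells + titrated cpds, 37 °C CO2. Alamar blue for cytotoxicity, PBS rinse, then lysis reagent w/ 20 μM FRET peptide (EDANS/DABCYL), 150 mM NaCl; kinetic read ex340/em490, 20 cycles. Alt: Dual-Glo luciferase. EC50 = 50% drop in FRET/luciferase signal after background subtraction.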

[2] = Table 1a, HCV NS5B RdRp genotype 1b, read-out: IC50
[3] = Table 1a, HCV replicon, read-out: EC50
[4] = Table 1b, HCV NS5B RdRp genotype 1b, read-out: IC50
[5] = Table 1b, HCV replicon, read-out: EC50
[6] = untitled table after Table 1b, HCV NS5B RdRp genotype 1b, read-out: IC50
[7] = untitled table after Table 1b, HCV replicon, values without asterisk, read-out: EC50

T1 sequence (Q9WMX2 2420-2992): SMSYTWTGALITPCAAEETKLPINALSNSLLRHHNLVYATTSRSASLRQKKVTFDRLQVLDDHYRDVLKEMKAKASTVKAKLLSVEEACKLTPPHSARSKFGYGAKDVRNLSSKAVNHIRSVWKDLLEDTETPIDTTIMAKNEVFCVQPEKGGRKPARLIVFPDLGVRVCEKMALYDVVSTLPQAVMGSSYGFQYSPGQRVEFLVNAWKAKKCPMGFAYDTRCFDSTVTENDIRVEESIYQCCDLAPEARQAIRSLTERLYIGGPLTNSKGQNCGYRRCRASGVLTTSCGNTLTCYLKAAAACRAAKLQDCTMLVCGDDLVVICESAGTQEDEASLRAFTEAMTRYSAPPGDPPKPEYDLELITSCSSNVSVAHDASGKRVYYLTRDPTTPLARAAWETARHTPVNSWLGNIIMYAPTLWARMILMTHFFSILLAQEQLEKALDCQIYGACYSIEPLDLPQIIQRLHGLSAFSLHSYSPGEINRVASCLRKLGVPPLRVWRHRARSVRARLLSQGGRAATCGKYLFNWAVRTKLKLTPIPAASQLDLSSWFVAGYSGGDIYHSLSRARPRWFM

Row | Structure (SMILES) | pIC50 [1, 2] | pEC50 (HCV replicon cells; [3]) | pIC50 [1, 4] | pEC50 (HCV replicon cells; [5]) | also measured
1 | CNC(=O)c1c(-c2ccc(F)cc2)oc2ccc(-c3ccc(C(=O)NCCc4ccc(OC)cc4)cc3)cc12 | < 5.00 | < 5.00 | – | – | –
2 | CNC(=O)c1c(-c2ccc(F)cc2)oc2ccc(-c3cc(C(=O)NC4(c5ccccc5)CC4)ccc3OCCO)cc12 | – | – | > 6.60 | > 6.60 | –
3 | CCC(NC(=O)c1cc(-c2ccc3oc(-c4ccc(F)cc4)c(C(=O)NC)c3c2F)c(C)cc1OC)c1ncccn1 (stereo not drawn) | – | – | > 6.60 | > 6.60 | –
4 | CNC(=O)c1c(-c2ccc(F)cc2)oc2ccc(-c3ccc(C(=O)N(C)Cc4cccnc4)cc3)cc12 [drawing 286] | 5.00 to 6.00 | < 5.00 | – | – | –
5 | CNC(=O)c1c(-c2ccc(F)cc2)oc2ccc(-c3cccc(S(=O)(=O)NCCO)c3)cc12 | 5.00 to 6.00 | < 5.00 | – | – | –
6 | CNC(=O)c1c(-c2ccc(F)cc2)oc2ccc(-c3cc(OC)ncc3F)cc12 | < 5.00 | < 6.21 | – | – | –
7 | CNC(=O)c1c(-c2ccc(F)cc2)oc2ccc(-c3cccc(C(=O)N[C@@H](CO)C(C)(C)C)c3)cc12 | 5.00 to 6.00 | 5.00 to 6.00 | – | – | –
8 | CCNC(=O)c1cccc(-c2ccc(-c3ccc4oc(-c5ccc(F)cc5)c(C(=O)NC)c4c3)cc2C(=O)NCC(C)C)c1 | – | – | > 6.60 | > 6.60 | –
9 | CNC(=O)c1c(-c2ccc(F)cc2)oc2ccc(-c3cc(C(=O)NCC(C)C)ccc3OCCNC(N)=O)cc12 | – | – | > 6.60 | > 6.60 | –
10 | CNC(=O)c1c(-c2ccc(F)cc2)oc2ccc(-c3cccc(C(=O)NCC4CCCCC4)c3)cc12 | > 6.60 | 6.00 to 6.60 | – | – | –
11 | CNC(=O)c1c(-c2ccc(F)cc2)oc2ccc(-c3cccc(C(=O)NC(C)(C)C(=O)O)c3)cc12 | 6.00 to 6.60 | < 5.00 | – | – | –
12 | CNC(=O)c1c(-c2ccc(F)cc2)oc2ccc(-c3cc(C(=O)NC(C)(C)c4ccccc4)ccc3OC)cc12 [drawing 608] | – | – | – | – | pIC50 [1, 6]: 8.02; pEC50 (HCV replicon cells; [7]): 8.52
13 | CC(C)Oc1cc2c(-c3ncn[nH]3)c(-c3ccc(F)cc3)oc2cc1N(C)S(C)(=O)=O | 6.00 to 6.60 | 5.00 to 6.00 | – | – | –
14 | CNC(=O)c1c(-c2ccc(F)cc2)oc2ccc(-c3cc(C(=O)NC(C)(C)C)c(OC)cc3C)c(F)c12 | – | – | > 6.60 | > 6.60 | –
15 | CNC(=O)c1c(-c2ccc(F)cc2)oc2ccc(-c3cc(C(=O)NC4(c5ccccc5)CC4)ccc3C)cc12 [drawing 362] | – | – | > 6.60 | > 6.60 | –
16 | CNC(=O)c1cccc(-c2ccc3oc(-c4ccc(F)cc4)c(C(=O)NC)c3c2)c1 | 5.00 to 6.00 | 6.00 to 6.60 | – | – | –
17 | CNC(=O)c1c(-c2ccc(F)cc2)oc2ccc(-c3cc(C(=O)NC4(c5ncccn5)CC4)ccc3C)c(F)c12 [drawing 587] | – | – | > 6.60 | > 6.60 | –
18 | CNC(=O)c1c(-c2ccc(F)cc2)oc2ccc(-c3cc(C)c(Br)cc3C)cc12 | < 5.00 | < 5.43 | – | – | –
19 | CNC(=O)c1c(-c2ccc(F)cc2)oc2ccc(-c3cc(C(=O)NC4(c5nnc(-c6cccc(OC)c6)[nH]5)CC4)ccc3C)cc12 | – | – | > 6.60 | > 6.60 | –
20 | CNC(=O)c1c(-c2ccc(F)cc2)oc2ccc(-c3cccc(C(=O)NC4CN5CCC4CC5)c3)cc12 (stereo not drawn) | – | – | – | – | pIC50 [1]: 5.00 to 6.00; pEC50 (HCV replicon cells): 5.00 to 6.00
21 | CNC(=O)c1c(-c2ccc(F)cc2)oc2ccc(-c3cc(C(=O)NC4(c5ccccn5)CC4)c(F)cc3C)cc12 | – | – | > 6.60 | > 6.60 | –
22 | CNC(=O)c1c(-c2ccc(F)cc2)oc2ccc(-c3cccc(C(=O)NCC4CCCO4)c3)cc12 (stereo not drawn) | > 6.60 | 6.00 to 6.60 | – | – | –
23 | CNC(=O)c1c(-c2ccc(F)cc2)oc2ccc(-c3cccc(C(=O)N4CCCC4c4ccccc4)c3)cc12 (stereo not drawn) | 6.00 to 6.60 | 6.00 to 6.60 | – | – | –
24 | CNC(=O)c1c(-c2ccc(F)cc2)oc2cc([N+](=O)[O-])c(-c3cc(C(=O)NC4(c5ccccc5)CC4)ccc3OC)cc12 | – | – | > 6.60 | 6.00 to 6.60 | –

Row | Structure (SMILES) | pIC50 [1, 2] | pEC50 (HCV replicon cells; [3]) | pIC50 [1, 4] | pEC50 (HCV replicon cells; [5]) | also measured
25 | CCCC(CCC)NC(=O)c1cccc(-c2ccc3oc(-c4ccc(F)cc4)c(C(=O)NC)c3c2)c1 | < 6.40 | 5.00 to 6.00 | – | – | –
26 | CCC(CC)NC(=O)c1cccc(-c2ccc3oc(-c4ccc(F)cc4)c(C(=O)NC)c3c2)c1 | > 6.60 | > 6.60 | – | – | –
27 | CNC(=O)c1c(-c2ccc(F)cc2)oc2ccc(-c3cc(C(=O)NC4(c5ccccn5)CC4)ccc3OC)cc12 | – | – | > 6.60 | > 6.60 | –
28 | CNC(=O)c1c(-c2ccc(F)cc2)oc2ccc(-c3cccc(C(=O)NC(C)(C)c4ccc(Cl)cc4)c3)cc12 | – | – | > 6.60 | > 6.60 | –
29 | CCNC(=O)c1cccc(-c2ccc3oc(-c4ccc(F)cc4)c(C(=O)NC)c3c2)c1 | 6.00 to 6.60 | 6.00 to 6.60 | – | – | –
30 | CNC(=O)c1c(-c2ccc(F)cc2)oc2ccc(-c3cc(C(=O)NC4(c5ccccc5)CC4)ccc3F)cc12 [drawing 609] | – | – | – | – | pIC50 [1, 6]: 7.70; pEC50 (HCV replicon cells; [7]): 8.45
31 | CNC(=O)c1c(-c2ccc(F)cc2)oc2ccc(-c3cccc(C(=O)Nc4cc(C)no4)c3)cc12 | 5.00 to 6.00 | 5.00 to 6.00 | – | – | –
32 | CNC(=O)c1c(-c2ccc(F)cc2)oc2ccc(-c3cc(OCc4ccco4)cc(C(=O)NCC(C)C)c3)cc12 | – | – | 5.00 to 6.00 | 5.00 to 6.00 | –
33 | CNC(=O)c1c(-c2ccc(F)cc2)oc2ccc(-c3cccc(C(=O)Nc4ccncc4)c3)cc12 | > 6.60 | > 6.60 | – | – | –
34 | CCCCNC(=O)c1cccc(-c2ccc3oc(-c4ccc(F)cc4)c(C(=O)NC)c3c2)c1 | > 6.60 | > 6.60 | – | – | –
35 | CNC(=O)c1c(-c2ccc(F)cc2)oc2ccc(-c3cccc(C(=O)NCc4cccnc4)c3)cc12 | > 6.60 | 6.00 to 6.60 | – | – | –
36 | CCCCCNC(=O)c1cccc(-c2ccc3oc(-c4ccc(F)cc4)c(C(=O)NC)c3c2)c1 | > 6.60 | > 6.60 | – | – | –
37 | CNC(=O)c1c(-c2ccc(F)cc2)oc2ccc(-c3cccc(C(=O)NC(C)(C)c4ccccc4)c3)c(N)c12 | > 6.60 | > 6.60 | – | – | –
38 | CNC(=O)c1c(-c2ccc(F)cc2)oc2ccc(-c3cccc(C(=O)Nc4nc(C)cs4)c3)cc12 | > 6.60 | 6.00 to 6.60 | – | – | –
39 | CNC(=O)c1c(-c2ccc(F)cc2)oc2ccc(-c3ccc(Cl)cc3C(=O)O)cc12 | 5.00 to 6.00 | < 5.00 | – | – | –
40 | CNC(=O)c1c(-c2ccc(F)cc2)oc2ccc(-c3cccc(C(=O)NC(C)(C)c4cccnc4)c3)cc12 | – | – | > 6.60 | > 6.60 | –
41 | CNC(=O)c1c(-c2ccc(F)cc2)oc2cc(NS(C)(=O)=O)c(-c3cc(C(=O)NC4(c5ccccc5)CC4)ccc3C)cc12 | – | – | > 6.60 | > 6.60 | –
42 | CNC(=O)c1c(-c2ccc(F)cc2)oc2ccc(-c3cccc(C(=O)NC(C)(C)C(=O)NCC#N)c3)cc12 | > 6.60 | 6.00 to 6.60 | – | – | –
43 | CCOC(=O)[C@@H]1CCCN1C(=O)c1cccc(-c2ccc3oc(-c4ccc(F)cc4)c(C(=O)NC)c3c2)c1 | 5.00 to 6.00 | < 5.00 | – | – | –
44 | CNC(=O)c1c(-c2ccc(F)cc2)oc2ccc(-c3cccc(C(=O)Nc4cnccn4)c3)cc12 | > 6.60 | > 6.60 | – | – | –
45 | CNC(=O)c1c(-c2ccc(F)cc2)oc2ccc(-c3cccc(C(=O)NCc4ccccc4F)c3)cc12 | 6.00 to 6.60 | 5.00 to 6.00 | – | – | –
46 | CNC(=O)c1c(-c2ccc(F)cc2)oc2ccc(-c3cc(C(=O)NC4(c5ccccc5)CC4)ccc3OCCN(C)C)cc12 | – | – | > 6.60 | > 6.60 | –
47 | CN1CN(C)c2c(-c3cccc(C(N)=O)c3)ccc3oc(-c4ccc(F)cc4)c(c23)C1=O [drawing 319] | < 5.00 | < 5.00 | – | – | –
48 | CNC(=O)c1c(-c2ccc(F)cc2)oc2ccc(-c3cc(C(=O)NC4(c5ccccc5)CC4)ccc3OC)cc12 [drawing 356] | – | – | > 6.60 | > 6.60 | –
